Here are results for seven compounds from paper PMC3210331 (Journal of structural biology, 2011).

One data set has as its system Chk2. The conditions noted are these: ref Jobson et al., cited from earlier work.
The next data set concerns the target recombinant human Chk2 (Homo sapiens, UniProt O96017). In words: IMAP fluorescence polarization kinase inhibition assay, Chk2. The class given is biochemical. The following applies: read-out: IC50 Chk2 Mean ±SD (n=3–4), 60 minutes at room temperature.
In another data set the target is T1, Chk1 (Homo sapiens, UniProt O14757).
T1 sequence (O14757 1-476): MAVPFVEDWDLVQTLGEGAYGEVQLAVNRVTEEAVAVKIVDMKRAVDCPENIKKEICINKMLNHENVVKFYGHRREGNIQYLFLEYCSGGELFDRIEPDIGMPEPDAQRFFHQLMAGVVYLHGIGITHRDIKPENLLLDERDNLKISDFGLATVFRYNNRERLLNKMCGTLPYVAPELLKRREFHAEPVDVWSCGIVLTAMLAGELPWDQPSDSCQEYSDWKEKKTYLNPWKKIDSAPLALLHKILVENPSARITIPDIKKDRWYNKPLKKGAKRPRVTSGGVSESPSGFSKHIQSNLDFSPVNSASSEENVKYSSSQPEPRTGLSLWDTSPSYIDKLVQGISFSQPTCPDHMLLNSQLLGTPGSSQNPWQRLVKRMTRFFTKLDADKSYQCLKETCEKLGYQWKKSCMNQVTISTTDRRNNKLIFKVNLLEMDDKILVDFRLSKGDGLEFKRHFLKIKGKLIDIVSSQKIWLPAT
In words: IMAP fluorescence polarization kinase inhibition assay, Chk1. The format is biochemical. The following applies: for IC50: read-out: IC50 Chk1, IMAP assay, 60 minutes at room temperature.

The next data set addresses RSK2 (Homo sapiens, UniProt P51812). As to the kind of experiment: IMAP fluorescence polarization kinase inhibition assay, RSK2. The class given is biochemical. The following applies: for IC50: read-out: IC50 RSK2, IMAP assay, 60 minutes at room temperature.
The conditions of data set [1]: ref Anderson et al., 2011; cited from earlier work.
Setting [2] is: positive control on each screening plate.

Sequence of RSK2 (P51812 68-327 limits assumed): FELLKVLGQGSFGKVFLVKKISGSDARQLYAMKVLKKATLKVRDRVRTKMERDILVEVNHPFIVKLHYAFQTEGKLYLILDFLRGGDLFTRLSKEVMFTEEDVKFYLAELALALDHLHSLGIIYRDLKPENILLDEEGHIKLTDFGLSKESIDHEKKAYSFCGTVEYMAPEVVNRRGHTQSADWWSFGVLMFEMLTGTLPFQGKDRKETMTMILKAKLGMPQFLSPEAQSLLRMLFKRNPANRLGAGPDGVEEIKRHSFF
Sequence of recombinant human Chk2 (O96017 whole entry): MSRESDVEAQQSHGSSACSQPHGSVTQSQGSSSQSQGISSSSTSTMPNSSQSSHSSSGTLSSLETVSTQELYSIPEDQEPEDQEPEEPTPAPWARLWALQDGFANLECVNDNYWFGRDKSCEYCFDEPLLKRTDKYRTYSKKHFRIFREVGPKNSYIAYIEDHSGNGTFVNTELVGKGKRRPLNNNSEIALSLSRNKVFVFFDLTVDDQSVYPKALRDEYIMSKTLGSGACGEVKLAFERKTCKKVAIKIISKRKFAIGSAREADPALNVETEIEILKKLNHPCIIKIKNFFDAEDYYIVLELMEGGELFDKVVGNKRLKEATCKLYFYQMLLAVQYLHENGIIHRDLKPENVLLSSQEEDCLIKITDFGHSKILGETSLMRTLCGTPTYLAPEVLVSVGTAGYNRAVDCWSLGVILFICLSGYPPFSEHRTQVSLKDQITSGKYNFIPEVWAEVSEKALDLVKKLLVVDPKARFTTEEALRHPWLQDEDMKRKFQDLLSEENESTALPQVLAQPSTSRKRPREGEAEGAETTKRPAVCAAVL

For `CC(=NNC(=N)N)c1ccc(NC(=O)c2cc3cccc([N+](=O)[O-])c3[nH]2)cc1` [PV1019, 7-nitro-1H-indole-2-carboxylic acid {4-[1-(guanidinohydrazone)-ethyl]-phenyl}-amide], the “Activity in cells against Chk2” value in the data set on Chk2 (2009) is given as “active”.

On to `N/C(=N/N=C/c1cccnc1)N[N+](=O)[O-]` [PV1531], for which the IC50 on recombinant human Chk2 was 0.03 ± 0.03 nM; on Chk1, 86 µM; at RSK2 it was greater than 100 µM.

Consider `OCC=CCO` [PV976], for which the IC50 on recombinant human Chk2 was 69.6 ± 40.2 nM; on Chk1 it was greater than 100 µM; at RSK2 it was greater than 100 µM.

For the compound `C/C(=N\NC1=NCCN1)c1ccc(NC(=O)c2cc3cccc([N+](=O)[O-])c3[nH]2)cc1` [PV1115], the IC50 on Chk1 is 66 µM; on RSK2, greater than 100 µM.

Consider `COc1cc2nc(-c3cc(F)ccc3O)nc(N[C@@H]3CNC[C@H]3C(C)(C)O)c2cc1OC` [CCT241533], for which the “Potentiation of cytotoxicity of PARP inhibitors” value in data set [1] is “potentiate the cytotoxicity of PARP inhibitors”.

Turning to `CC(=NNC(=N)N)c1ccc(NC(=O)Nc2ccc(C(C)=NNC(=N)N)cc2)cc1` [NSC 109555, 4,4'-Diacetyldiphenylurea-bis(guanylhydrazone)], the “Activity in cellular assays” value in the data set with Chk2 (2007) is “inactive”.

Consider `CN[C@@H]1C[C@H]2O[C@@](C)([C@@H]1OC)n1c3ccccc3c3c4c(c5c6ccccc6n2c5c31)C(=O)NC4` [staurosporine, reference compound], for which, at Chk1 (setting [2]), the “Inhibition of Chk1 (positive control)” value is on record as “inhibits”. In addition, the “Inhibition of RSK2 (positive control)” value at RSK2 (setting [2]) was “inhibits”.
